Measurements: US20170320939A1, “COLL2-1 PEPTIDE AND ITS NITRATED FORM AS THERAPEUTIC TARGETS FOR OSTEOARTHRITIS TREATMENT” (Université de Liège, priority 2014, published 2017)

How the values were obtained:
[1] = tested on: OA synovial fibroblast cells; assay: Intracellular H2O2 production in OA synovial fibroblast cells; format: cell-based, human
Procedure: 1.1 Patients. Synovial tissue samples were obtained from 10 patients (8 women, 2 man; mean age 70 +/−6 years) with osteoarthritis (OA) of the knee at the time of total knee joint replacement surgery. All the subjects provided their informed consent.
1.2 Isolation and culture of synovial cells. Synovium biopsies were digested is with collagenase from Clostridium histolyticum, Type IA (1 mg/ml) (Sigma-Aldrich, Saint-Louis, USA) and 0.25% trypsin (Sigma Aldrich, Saint Louis, USA) with 0.68 mM EDTA in Tris buffer 0.1M, pH 7.4 in complete medium (CM) (DMEM (Dulbecco's Modified Eagle's Medium) Low Glucose supplemented with 10 mM HEPES, 100 U/ml penicillin, 100 μg/ml streptomycin, 2 mM glutamine and 10% fetal calf serum (Lonza, Verviers, Belgium)) for 1 hour at 37° C. The cells suspensions were passed through a 70-μm filter to remove any undigested tissue. The filtered cells suspensions were then collected by centrifugation at 800 g and were cultured in culture flasks. After 24 hours, medium was changed to eliminate non adherent cells. Synovial fibroblasts cells (SFC) were used after three passages.
(§1) 1.3 Treatment of synovial fibroblast cells. Cells were seeded into a six-well plate at the density of 2×10^5 cells/well in 2 ml of CM. When the cells reached confluence, the CM was replaced with 1% serum medium for 24 h to keep the cells quiescent. Cells were incubated for 24 hours with or without peptides Coll2-1 (^108HRGYPGLDG^116; 0.45 and 4.5 nmol) or Coll2-1NO2 (^108HRGYPGLDG-NO2^116; 4 and 40 pmol) at a range of concentrations found in the blood of osteoarthritic patients.
1.5 Intracellular H2O2 and O2^∘^− productions. Levels of intracellular superoxide anion (O2^∘^−) and hydrogen peroxide (H2O2) were assessed spectrofluorimetrically by oxidation of specific probes: dihydroethidium (Molecular Probes, Leiden, The Netherlands) and H2DCFH-DA (Molecular Probes, Leiden, The Netherlands) respectively. Synovial cells seeded on 96-well plates (8×10^3 cells per well) were washed once with phosphate-buffered saline and then incubated with 50 μL of phosphate-buffered saline containing either 250 μM dihydroethidium or 200 μM H2DCFH-DA. The fluorescence intensity was measured every hour for 6 hours. The levels of O2^∘^− or H2O2 are expressed in arbitrary unit/living cell. The numbers of adherent cells were measured by crystal violet assay.

IL-8 = IL-8 mRNA expression by Real Time PCR in OA synovial fibroblast cells; format: cell-based, human; conditions: 24 hours
Procedure: as §1
1.4 RNA extraction and Real Time Reverse Transcriptase-Polymerase Chain Reaction (RT PCR). Total RNA were extracted using the RNeasy Mini Kit (Qiagen, Netherlands) and were reverse transcribed with SuperScript III Reverse Transcriptase (Invitrogen, Belgium) according to the manufacturer's instructions. The cDNAs were quantified by real-time quantitative PCR using the Rotor Gene instrument (Qiagen, Venlo, Netherlands) and the SYBR Premix Ex Taq kit (Takara, Verviers, Belgium). The level of gene expression was determined by interpolation with a standard curve. To standardize mRNA levels, HPRT, a house keeping gene, was amplified as an internal control. The oligonucleotide primers sequences were as follow: HPRT forward, 5′-[…]-3′ (SEQ ID NO: 2); HPRT reverse, 5′-TGCCTGACCAAGGAAAGC-3′ (SEQ ID NO: 3); TSP-1 forward, 5′-CAGACCGCATTGGAGATAC-3′ (SEQ ID NO: 4); TSP-1 reverse, 5′-[…]-3′ (SEQ ID NO: 5); VEGF forward, 5′-TGCCTTGCTGCTCTAC-3′ (SEQ ID NO: 6); VEGF reverse, 5′-CACACAGGATGGCTTGAA-3′ (SEQ ID NO: 7); IL-6 forward, 5′-AAACAAATTCGGTACATCCTCG-3′ (SEQ ID NO: 8); IL-6 reverse, 5′-CCA GGC AAG TCT CCT CAT-3′ (SEQ ID NO: 9); IL-8 forward, 5′-GGAACCATCTCACTGTGTGTAA-3′ (SEQ ID NO: 10); IL-8 reverse, 5′-TGGAAAGGTTTGGAGTATGTCT-3′ (SEQ ID NO: 11).

NF-κB = NF-κB activation, Western blotting of phospho-p65 and phospho-IκBα; format: cell-based; conditions: in the presence of Coll2-1
Procedure: Western blotting. Cells were collected at 4° C. and lysed on ice in 50 μl of buffer (25 mM Hepes, 150 mM NaCl, 0.5% Triton X-100, 10% glycerol, and 1 mM dithiothreitol) containing protease and phosphatase inhibitors. After incubation at 4° C. for 30 minutes, lysates were then centrifugated at 14,000 g for 30 minutes at 4° C. to remove insoluble debris. Protein concentrations were determined using BCA assay. Total protein extracts (10 μg) were fractioned by electrophoresis on a polyacrylamide gel (10%) and transferred onto a PVDF membrane. Membrane were blocked for 1 h in TBS-Tween containing 2% bovine serum albumin (phosphor-NF-κB p65 and phospho-IκBα). Membranes were then incubated overnight at 4° C. with primary antibodies. Anti-rabbit phospho-NF-κB p65 (1:1000 dilution), anti-rabbit phospho-IκBα (1:1000 dilution) were used. Horse-radish peroxidase (HRP)-linked anti-rabbit IgG antibody (1:2000 dilution) was used as secondary antibody.

HRGYPGLDG [Coll2-1]
intracellular production of H2O2 ([1]; Coll2-1 at 4.5 nmol, 24 hours): significantly increased | H2O2 production ([1]; increasing doses of Coll2-1 peptide): increase | IL8 gene expression (IL-8; Coll2-1 at 0.45 nmol): dose-dependently increased | IL8 gene expression (IL-8; Coll2-1 at 4.5 nmol): dose-dependently increased | IL-8 expression (IL-8; increasing concentrations: Coll2-1 (0.45 and 4.5 nmol) or Coll2-1NO2 (4 and 40 pmol)): increased | IκBα degradation (NF-κB): induced | phosphorylation of p65 NF-κB subunit (NF-κB): observed the phosphorylation
